# Experimental data as given in patent US20010041708A1, “Compositions for preventing cellulite in mammalian skin” (Zen-Bio, Inc., priority 2000, published 2001).
# “And” between values parts separate entries of the source, which are not always exact repeats. Identical values can stand only once.
# Legend:
# [1] = test system: stromal vascular (SV) cells from human adipose tissue; assay: Triglyceride (TG) content of differentiating primary cultures of SV cells; format: cell-based; conditions: for TG content, dose response: Exp. 3, 1, 3, 10, 30 uM; for More TG content than cultures treated with 10 uM trans-10, cis-12 CLA alone: Exp. 4
# Protocol: Abdominal adipose tissue (Exp. 1-5) and thigh adipose tissue (Exp. 5b) were obtained from middle-aged females with body mass indexes <30.0 during liposuction or elective surgery. Subsequently, tissue was minced and enzymatically digested for 45 min in a Krebs-Ringer buffer containing 1 mg/mL collagenase (CLS-1, Worthington Biochemical Corp, Lakewood, N.J.), 15 mg/mL bovine serum albumin (BSA), 5 mM glucose and 100 mM HEPES (pH 7.4). Digestion was carried out at a 5 mL/1 g ratio (digestion solution: tissue mass). The digesta was then filtered through 200- and 60-micron mesh and pelleted at 600×g for 5 min. The SV cells were resuspended in a RBC lysis buffer for 10 min and then filtered and recentrifuged to remove contaminating […]. Cultures of SV cells were grown in proliferation medium containing 90% DME/Ham's F-10 (1:1, v/v), 10% (v/v) fetal bovine serum (FBS), 15 mM HEPES (pH 7.4), 60 U/mL penicillin, 60 U/mL streptomycin, and 25 ug/mL fungizone. Cultures were incubated at 37° C. in a humidified […]:CO2 (90:10%) atmosphere. SV cells were grown to 80% confluency and then cryopreserved in liquid nitrogen in aliquots (2×10^6 cells/mL).
# Cryopreserved aliquots were subsequently thawed, seeded in T-150 flasks (e.g., 1 vial per 2 T-150 flasks), and grown in proliferation media until 80% confluent. At this time the cells were removed via trypsinization, seeded (3×10^4/cm^2, except for Exp. 1) in 24-well or 96-well (Exp. 5b) Falcon dishes, and allowed to attach for 24 h in proliferation medium. Following attachment, cultures were grown in differentiation medium for the next 3 d which contained DME/Ham's F-10 (1:1,v/v), 15 mM HEPES (pH 7.4), 33 uM biotin, 17 uM pantothenate, 100 nM human insulin, 1 uM dexamethasone (DEX), 60 U/mL penicillin, 60 U/mL streptomycin, 25 ug/mL fungizone, 0.25 mM isobutylmethylxanthine (IBMX), and TZD (Exp. 1 & 2=BRL 49653; Exp. 3-5=Zen Bio's proprietary reagent). Thereafter, cultures were exposed to adipocyte medium consisting of 90% DME/Ham's F-10 (1:1,v/v), 15 mM HEPES (pH 7.4), 3% FBS (v/v), 33 uM biotin, 17 uM pantothenate, 100 nM human insulin, 1 uM DEX, 60 U/mL penicillin, 60 U/mL streptomycin, and 25 ug/mL fungizone. Adipocyte media was replaced every 3 d. […] After 18 day in culture, the majority of the cells contained visual lipid droplets.
# (§1) Experiment 1 was designed to determine optimal culturing conditions during differentiation of primary cultures of SV cells isolated from human adipose tissue. Specifically, the experiment was designed to determine how seeding density and thiazolidinedione (TZD; PPARγ-agonist BRL 49653) concentration influenced TG content (ug/10^6cells). SV cells were seeded at increasing densities (2-, 3-, or 4×10^4/cm^2) in differentiation media containing 0, 1, or 10 uM TZD (BRL 49653) in this 3×3 factorial design. All cultures received the same adipocyte media after 3 d of differentiation. The cultures were harvested on day 11-12 of differentiation and TG content and cell number were measured. Another set of cultures was stained with Oil Red O and counterstained with Mayer's hematoxylin to assess cellular differentiation potential (n=3 per treatment combination).
# In Experiment 2 the impact of linoleic acid and the trans-10, cis-12 isomer of CLA on TG accumulation in these cells was examined. SV cells were seeded at a density of 3×10^4/cm^2 and continuously treated with either 10 uM linoleic acid, 100 uM linoleic acid, 10 uM trans-10, cis-12 CLA, or 100 uM trans-10, cis-12 CLA, and grown under our normal differentiation protocol. One set of control cultures contained only vehicle (BSA) and another contained vehicle plus TZD (BRL 49653). TG content and cell number were measured on day 11 of differentiation.
# The objective of Experiment 3 was to evaluate the dose response of trans-10, cis-12 CLA, cis-9, trans-11 CLA, and linoleic acid on TG content of the cultures. […]
# [2] = test system: stromal vascular (SV) cells from human adipose tissue; assay: Percentage of cells differentiated into adipocytes (Oil Red O staining); format: cell-based; conditions: Exp. 1, seeding density 4×10^4
# Protocol: as §1
# The presence of intracellular lipid was visualized by staining cultures with Oil Red O as previously described for human SV cultures (McIntosh et al. (1999) Int. J. Obesity 23:595-602). […] Counterstaining allows for quantifying the percentage of cells that have undergone differentiation (e.g., […]). […]
# [3] = test system: differentiated human adipocytes; assay: Lipolysis measurement (glycerol release) in day 21 differentiated human adipocytes; conditions: 3 hrs
# [4] = test system: cultures of thigh adipocytes; assay: Lipolysis assay (glycerol release), thigh adipocytes; format: cell-based, human; conditions: Exp. 5b; 1 uM, 5 h, day 18, thigh
# Protocol: (§2) Subsequently, tissue was minced and enzymatically digested for 45 min in a Krebs-Ringer buffer containing 1 mg/mL collagenase (CLS-1, Worthington Biochemical Corp, Lakewood, N.J.), 15 mg/mL bovine serum albumin (BSA), 5 mM glucose and 100 mM HEPES (pH 7.4). Digestion was carried out at a 5 mL/1 g ratio (digestion solution: tissue mass). The digesta was then filtered through 200- and 60-micron mesh and pelleted at 600×g for 5 min. The SV cells were resuspended in a RBC lysis buffer for 10 min and then filtered and recentrifuged to remove contaminating […]. […] SV cells were grown to 80% confluency and then cryopreserved in liquid nitrogen in aliquots (2×10^6 cells/mL). In Experiment 5b, basal lipolysis was measured on day 18 of differentiation after the cultures had been treated with fatty acids for 5 h. […] Lipolysis was determined by measuring free and esterified glycerol release into the media following acute (5 h) treatment. […] On day 17 of differentiation, cultures were grown in basal adipocyte media (adipocyte media minus insulin and DEX). […] A set of vehicle controls contained 0.1% DMSO. One hundred microliters of conditioned media was removed from each well, and lipolytic rate determined by quantifying the amount of free glycerol and esterified glycerol in each sample using Sigma's triglyceride kit (GPO-Trinder, Sigma Chemical Co.).
# [5] = test system: cultures of abdominal adipocytes; assay: Lipolysis assay (glycerol release), abdominal adipocytes; format: cell-based, human; conditions: Exp. 5b; 1 uM, 5 h, day 18, abdominal
# Protocol: as §2
# 3T3-L1 preadipocytes [6] = assay: Fatty acid composition of neutral and phospholipid fractions of treated cultures; format: cell-based, murine
# [7] = test system: stromal vascular (SV) cells from human adipose tissue; assay: De novo lipogenesis (14C-glucose incorporation into cellular lipid); format: cell-based; conditions: Exp. 5a; 3, 10, 30 uM, day 12
# Protocol: Experiments 5a and 5b were designed to determine if the trans-10, cis-12 CLA-mediated reduction in TG content was due to decreased lipogenesis and/or increased lipolysis. In Experiment 5a (lipogenesis), SV cells were seeded at a density of 3×10^4/cm^2 and continuously treated with increasing concentrations (3, 10, or 30 uM) of either linoleic acid, cis-9, tran-11 CLA, or trans-10, cis-12 CLA. A set of control cultures received vehicle (BSA) plus TZD. All cultures received differentiation media (days 1-3), adipocyte media (days 4-9), and low-glucose (˜5 mM) adipocyte media (days 10-12) prior to measuring de novo lipogenesis. On day 12, ^14C-labeled glucose incorporation into the lipid fraction of the cultures was measured for 2 h and, following lipid extraction, the radioactivity in the lipid fraction was determined by scintillation counting. Time course data (not shown) indicated a linear increase in radiolabeled glucose incorporation into lipid over 2 h.
# Incorporation of ^14C-glucose into cellular lipid was determined on day 12 of differentiation in cultures chronically treated with fatty acids or vehicle. Following the addition of fatty acids and low glucose (˜5 mM) medium to the cultures on day 12, 1.0 μCi [U-^14C]-glucose ([U-^14C]-D-glucose; SA ˜250 mCi/mmol, ICN, Costa Mesa, Calif.)/mL medium was added to the cultures for 2 h. Our time course study (data not shown) indicated a linear increase in radiolabeled glucose incorporation into lipid over a 2 h period. After 2 h, media containing unincorporated ^14C-glucose was immediately removed and the cultures were washed with 1 mL HBSS to remove unincorporated ^14C-glucose. An additional 1 mL of HBSS was added and, after vigorous tritaration, cells were transferred to glass vials. Five milliliters of a chloroform:methanol (2:1) solution was added to each vial and they were vortexed for 1 min. All samples were then centrifuged for 5 min at 1000×g to further separate the hydrophobic and hydrophilic phases. The lower hydrophobic phase was removed from the tubes and dried under nitrogen at 40° C. Five milliliters of scintillation cocktail (Scinti Verse, Fisher Scientific, Norcross, Ga.) was added to each sample, and the ^14C content was determined by liquid scintillation counting on a Beckman LS 6000 Scintillation Counter (Beckman Instruments, Palo Atlo, Calif.). […] The radioactivity in the lipid fraction from these cultures was subtracted from the total counts. Cell numbers were determined from parallel treatment groups in separate culture dishes at the time of radioisotope addition to the medium. Therefore, mean ^14C-glucose incorporation is expressed as cpm/10^6 cells.
# 3T3-L1 preadipocytes [8] = assay: Morphological changes (apoptosis-like) in CLA-treated cultures; format: cell-based, murine; conditions: LA supplementation of trans-10, cis-12 CLA-treated cultures
# 3T3-L1 preadipocytes [9] = assay: Cell number of treated 3T3-L1 cultures; format: cell-based, murine; conditions: data not shown
# 3T3-L1 preadipocytes [10] = assay: TG content of 3T3-L1 preadipocytes; format: cell-based, murine; conditions: LA supplementation of CLA-treated cultures
# aP2 = aP2 protein expression in 3T3-L1 preadipocytes; format: cell-based, murine; conditions: after 6 d of treatment
# PPARγ2 = PPARγ2 protein expression in 3T3-L1 preadipocytes; format: cell-based, murine
structure (smiles),measurement,setting,value
CN(CCOc1ccc(CC2SC(=O)NC2=O)cc1)c1ccccn1 (stereo not drawn) [BRL 49653],"TG content, fold greater than similarly seeded cultures without BRL 49653","[1]; Exp. 1, 10 uM, seeded at 4×10^4 cells/cm^2",10 fold
same,Percentage of cells that differentiated,[2]; 1 uM TZD,50%
same,Percentage of cells that differentiated,[2]; 10 uM TZD,47%
Cn1c(=O)c2c(ncn2C)n(C)c1=O [Caffeine],"Lipolysis, fold increase over control",[3]; 0.1 % (wt./volume),2.4 fold and 4.2 fold
CC(C)NCC(O)c1ccc(O)c(O)c1 (stereo not drawn) [Isoproterenal],Stimulation of lipolysis,[4],~1.5 fold
same,"Lipolysis, fold increase over control",[3]; 0.00002 % (wt./volume),3.4 fold
same,Stimulation of lipolysis,[5],approximately 2.5 fold
Cn1c(=O)c2[nH]cnc2n(C)c1=O [Theophylline],"Lipolysis, fold increase over control",[3]; 0.01 % (wt./volume),0.8 fold
same,"Lipolysis, fold increase over control",[3]; 0.05 % (wt./volume),1.9 fold
same,"Lipolysis, fold increase over control",[3]; 0.1 % (wt./volume),3.1 fold
"CCCCCC/C=C/C=C\CCCCCCCC(=O)O [cis-9, trans-11 CLA]","TG content, dose response",[1]; day 11,increased in a dose dependent fashion
same,"Abundance in lipid fractions relative to trans-10, cis-12 isomer",3T3-L1 preadipocytes [6],1-2 fold
same,Incorporation into cellular lipid fractions,3T3-L1 preadipocytes [6]; neutral and phospholipid fractions,incorporated into the neutral and phospholipid fractions
same,"Incorporation of 14C-glucose into cellular lipid per 10^6 cells, dose response",[7],"neither linoleic acid nor trans-9, cis-11 CLA influenced de novo lipogenesis"
"CCCCC/C=C\C/C=C\CCCCCCCC(=O)O [linoleic acid, 9 cis, 12 cis-octadecadienoic acid]",CLA-induced morphological changes,3T3-L1 preadipocytes [8],inhibited the CLA-induced morphological changes in a dose-dependent manner
same,Cell number,3T3-L1 preadipocytes [9],increased cell number
same,TG content vs other treatments / TZD treated vehicle controls,"[1]; Exp. 2, 100 uM, continuous treatment, day 11",highest TG content
same,"TG content, dose response",[1]; day 11,increased in a dose dependent fashion
same,"More TG content than cultures treated with 10 uM trans-10, cis-12 CLA alone","[1]; 10 uM linoleic acid added to 10 uM trans-10, cis-12 CLA",26%
same,"More TG content than cultures treated with 10 uM trans-10, cis-12 CLA alone","[1]; 30 uM linoleic acid added to 10 uM trans-10, cis-12 CLA",55%
same,"More TG content than cultures treated with 10 uM trans-10, cis-12 CLA alone","[1]; 100 uM linoleic acid added to 10 uM trans-10, cis-12 CLA",64%
same,"TG content, concurrent linoleic acid with trans-10, cis-12 CLA",3T3-L1 preadipocytes [10],"able to prevent the TG-lowering effects of trans-10, cis-12 CLA"
same,aP2 protein expression,aP2,decreased
same,"PPARγ2 protein levels, concurrent LA and trans-10, cis-12 CLA vs CLA alone",PPARγ2; 6 d,increased PPARγ2 protein levels
same,PPARγ2 protein expression,PPARγ2; after 6 d of treatment,decreased
same,PPARγ2 protein expression compared to BSA controls,PPARγ2; day 2 of differentiation,reduced PPARγ2 protein expression
same,"Incorporation of 14C-glucose into cellular lipid per 10^6 cells, dose response",[7],"neither linoleic acid nor trans-9, cis-11 CLA influenced de novo lipogenesis"
